Laboratory results reported in patent US12303509B2, “Compounds for the treatment of BRAF-associated diseases and disorders” (Pfizer Inc., priority 2020, dated 2025).
Counter-ions that a name gives are not always drawn.

Columns and labels:
[1] = test system: H1755 cells; experiment: Cellular phospho-ERK inhibition assay in H1755 cells; format: cell-based; conditions: Homo sapiens, NCI-H1755, 2 hours treatment, read-out: H1755 Cell IC50
Method: (§1) A375 and H1755 cells were obtained from the American Type Culture Collection (ATCC, Rockville, MD). A375 cells were maintained in DMEM growth medium containing 10% FBS. H1755 cells were maintained in RPMI growth medium containing 10% FBS.
(§2) Cells were harvested according to standard protocols, counted and plated onto flat-bottom, 96-well tissue culture plates (Costar #3599) at 2.5×10^4 cells/well for A375 cells and 1.5×10^4 cells/well for H1755 cells in 100 μL/well of growth medium containing 10% FBS. After an overnight incubation at 37° C. with 5% CO2 cells were treated for 2 hours at 37° C., 5% CO2 with compounds prepared as a 9-point, 1:3.33 fold dilution series with final compound concentrations ranging from 66 pM-10 μM and a constant DMSO concentration of 0.25%. Control wells contained either 0.25% DMSO alone (uninhibited control) or 10 μM binimetinib (complete inhibition control). The levels of phosphorylated ERK are determined using an In Cell Western protocol: following compound incubation, growth medium was discarded, and cells were fixed with 0.4% formaldehyde in PBS for 20 minutes at room temperature. Cells were permeabilized with 100% methanol for 10 minutes at room temperature. Plates were washed with PBS containing 0.05% Tween-20 and blocked for 1 hour at room temperature with LI-COR Blocking Buffer (LI-COR Biosciences; Cat #927-40000). Plates were then incubated for 2 hours at room temperature with 50 μL of a 1:400 dilution of anti-phospho-ERK1/2 (Thr202/Tyr204) (Cell Signaling; Cat #9101) and a 1:1000 dilution of anti-GAPDH (Millipore; Cat #MAB374) in LI-COR blocking buffer containing 0.05% Tween-20. Plates were washed with PBS containing […] Tween-20 then incubated at room temperature for 1 hour with 50 μL of a 1:1000 dilution of anti-rabbit AlexaFluor 680 (Life Technologies; Cat #A21109) and a 1:1000 dilution of anti-mouse IRDye 800CW (LI-COR; Cat #926-32210) in LI-COR blocking buffer containing 0.05% Tween-20. Plates were analyzed by reading on an Odyssey CLx infrared scanner. For each well, the phospho-ERK signal was normalized to the GAPDH signal and converted to POC using the following equation:
(§3) [formula] • Where: • Xmax Average Uninhibited Controls • Xmin Average Complete Inhibition Controls IC50 values were then calculated using a 4-parameter fit in XLfit software and are provided in Table A1.

[2] = test system: A375 cells; experiment: Cellular phospho-ERK inhibition assay in A375 cells; format: cell-based; conditions: Homo sapiens, A-375, A375 cells (head prints A357), 2 hours treatment, read-out: A357 cell IC50
Method: as §1, §2, §3

[3] = molecular target: full-length FLAG-tagged B-Raf(V600E) (Homo sapiens (Human), UniProt P15056, V600E); experiment: BRAF V600E enzyme assay (TR-FRET competitive displacement); format: binding; conditions: averaged IC50; TR-FRET tracer displacement, 60 min
Method: A competitive displacement assay was configured for B-Raf that monitors the amount of a fluorescently-tagged “tracer” bound to B-Raf via TR-FRET from an anti-tag Eu-labeled antibody also bound to B-Raf. For full-length FLAG-tagged B-Raf(V600E), the assay mixtures consisted of 25 mM K^+HEPES, pH 7.4, 10 mM MgCl2, 0.01% Triton X-100, 1 mM DTT, 2% DMSO (from compound), 50 nM Tracer 1710 (ThermoFisher, PR9176A), 0.5 nM Eu anti-FLAG (M2)-cryptate Ab (Cisbio, 61FG2KLB) and 5 nM full-length, N-terminally FLAG-tagged B-Raf(V600E) (Origene Technologies, TP700031. Compounds were typically diluted in DMSO across an 11-point dosing range created using a 3-fold serial dilution protocol at a top dose of 10 μM. The assay was run in 384-well, polystyrene, low-volume, non-treated, white microtiter plates (Costar 4512) in a final volume of 12 μL. Low control wells included 1 μM of a potent B-Raf inhibitor as a control. The assays were incubated at ambient temperature (typically 22° C.) for 60 min and then read on a PerkinElmer EnVision microplate reader using standard TRF settings (λEx=320 nm, λEm=615 & 665 nm). The ratioed counts (665 nm/615 nm) were converted to percent of control (POC) using the following equation:
[formula] • where: • Xmax Average Uninhibited Controls • Xmin Average Background
A 4-parameter logistic model was the fit to the POC data for each compound. From that fit, the IC50 was estimated and is defined as the concentration of compound at which the best-fit curve crosses 50 POC.

[4] = MDR1 LLC-PK1 and BCRP MDCKII permeability assay: permeability coefficient (Papp); format: in vitro ADME
Description: (§4) Final organic concentration in the assay was 1%.

[5] = molecular target: P-gp (MDR1) (Homo sapiens (Human), UniProt P08183); experiment: MDR1 LLC-PK1 permeability assay: efflux ratio; format: in vitro ADME; conditions: pig
Description: as §4

[6] = molecular target: BCRP (Homo sapiens (Human), UniProt Q9UNQ0); experiment: BCRP MDCKII permeability assay: efflux ratio; format: in vitro ADME; conditions: dog
BCRP, sequence (Q9UNQ0 whole entry): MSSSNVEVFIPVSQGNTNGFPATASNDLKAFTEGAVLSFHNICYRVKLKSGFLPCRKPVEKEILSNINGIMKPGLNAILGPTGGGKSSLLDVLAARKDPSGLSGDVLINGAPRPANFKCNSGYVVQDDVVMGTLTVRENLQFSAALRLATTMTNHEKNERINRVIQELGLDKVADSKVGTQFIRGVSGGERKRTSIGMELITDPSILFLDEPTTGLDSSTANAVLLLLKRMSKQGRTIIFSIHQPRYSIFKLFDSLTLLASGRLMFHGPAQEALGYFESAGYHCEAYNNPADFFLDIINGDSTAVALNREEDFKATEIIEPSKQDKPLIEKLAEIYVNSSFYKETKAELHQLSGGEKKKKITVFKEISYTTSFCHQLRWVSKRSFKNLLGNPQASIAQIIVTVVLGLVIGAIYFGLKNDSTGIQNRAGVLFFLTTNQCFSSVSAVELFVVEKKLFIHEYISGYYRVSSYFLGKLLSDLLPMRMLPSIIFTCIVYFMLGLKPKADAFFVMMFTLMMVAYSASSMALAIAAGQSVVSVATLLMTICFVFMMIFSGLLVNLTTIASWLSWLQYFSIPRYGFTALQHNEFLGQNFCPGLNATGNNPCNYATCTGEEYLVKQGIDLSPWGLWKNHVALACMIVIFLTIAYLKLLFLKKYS

P-gp (MDR1), sequence (P08183 whole entry, species assumed): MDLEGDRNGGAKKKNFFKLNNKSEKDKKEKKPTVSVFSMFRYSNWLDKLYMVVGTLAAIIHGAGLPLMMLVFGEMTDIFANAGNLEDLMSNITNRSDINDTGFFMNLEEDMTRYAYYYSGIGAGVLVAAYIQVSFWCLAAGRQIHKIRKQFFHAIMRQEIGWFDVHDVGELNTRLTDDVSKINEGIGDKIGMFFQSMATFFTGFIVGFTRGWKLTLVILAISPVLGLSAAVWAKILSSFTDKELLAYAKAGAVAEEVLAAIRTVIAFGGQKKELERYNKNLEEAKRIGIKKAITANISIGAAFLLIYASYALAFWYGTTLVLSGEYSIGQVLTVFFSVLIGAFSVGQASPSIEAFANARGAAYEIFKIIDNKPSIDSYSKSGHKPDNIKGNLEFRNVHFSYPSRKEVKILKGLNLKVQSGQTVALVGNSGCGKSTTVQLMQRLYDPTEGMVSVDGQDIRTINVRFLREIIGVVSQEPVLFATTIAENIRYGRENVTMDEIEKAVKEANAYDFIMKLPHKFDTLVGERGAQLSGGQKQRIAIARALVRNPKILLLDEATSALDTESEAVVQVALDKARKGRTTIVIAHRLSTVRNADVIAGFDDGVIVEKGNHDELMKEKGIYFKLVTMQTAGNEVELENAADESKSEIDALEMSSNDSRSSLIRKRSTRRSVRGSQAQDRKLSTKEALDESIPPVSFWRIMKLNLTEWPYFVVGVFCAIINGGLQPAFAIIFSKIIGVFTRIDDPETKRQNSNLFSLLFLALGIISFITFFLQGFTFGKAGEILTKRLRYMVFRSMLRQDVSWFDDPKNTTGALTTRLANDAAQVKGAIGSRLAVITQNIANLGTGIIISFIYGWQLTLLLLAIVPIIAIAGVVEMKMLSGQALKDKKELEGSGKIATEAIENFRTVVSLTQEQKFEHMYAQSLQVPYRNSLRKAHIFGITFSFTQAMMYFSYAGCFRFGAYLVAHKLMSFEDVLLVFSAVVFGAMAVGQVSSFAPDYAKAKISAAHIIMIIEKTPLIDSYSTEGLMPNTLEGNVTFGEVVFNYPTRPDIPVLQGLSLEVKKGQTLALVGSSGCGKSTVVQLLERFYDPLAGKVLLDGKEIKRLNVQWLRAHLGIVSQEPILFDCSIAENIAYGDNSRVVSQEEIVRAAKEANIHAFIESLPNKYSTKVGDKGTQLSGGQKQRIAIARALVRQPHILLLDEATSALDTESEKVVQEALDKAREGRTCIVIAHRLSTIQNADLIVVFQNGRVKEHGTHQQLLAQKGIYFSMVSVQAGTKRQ
full-length FLAG-tagged B-Raf(V600E), sequence (P15056 whole entry V600E): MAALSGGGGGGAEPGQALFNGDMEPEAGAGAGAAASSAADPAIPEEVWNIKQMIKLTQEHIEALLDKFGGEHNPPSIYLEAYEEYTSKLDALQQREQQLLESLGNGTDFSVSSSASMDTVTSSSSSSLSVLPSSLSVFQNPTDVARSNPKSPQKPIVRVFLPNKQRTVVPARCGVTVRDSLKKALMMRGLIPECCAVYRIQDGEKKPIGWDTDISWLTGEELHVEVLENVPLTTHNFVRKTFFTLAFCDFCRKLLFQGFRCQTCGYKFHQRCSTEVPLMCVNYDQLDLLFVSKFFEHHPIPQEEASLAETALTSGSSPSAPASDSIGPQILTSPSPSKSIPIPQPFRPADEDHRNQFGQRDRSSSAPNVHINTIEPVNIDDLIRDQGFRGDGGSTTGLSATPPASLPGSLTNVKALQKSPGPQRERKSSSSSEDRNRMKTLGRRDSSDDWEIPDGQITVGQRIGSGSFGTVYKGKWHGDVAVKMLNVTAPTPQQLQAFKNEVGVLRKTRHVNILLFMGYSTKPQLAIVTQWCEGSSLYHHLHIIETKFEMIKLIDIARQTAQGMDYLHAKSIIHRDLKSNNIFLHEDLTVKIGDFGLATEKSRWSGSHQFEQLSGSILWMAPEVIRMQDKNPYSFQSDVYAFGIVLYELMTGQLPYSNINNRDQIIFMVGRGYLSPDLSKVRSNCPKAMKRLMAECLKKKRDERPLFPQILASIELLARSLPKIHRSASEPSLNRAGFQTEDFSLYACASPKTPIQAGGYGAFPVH

Structure (SMILES) | IC50 [1] [nM] | IC50 [2] [nM] | IC50 [3] [nM] | Papp at 2 h, 1 µM [4] [×10⁻⁶ cm/s] | efflux ratio at 2 h, 1 µM [5] | efflux ratio at 2 h, 1 µM [6]
C=Cc1c(Nc2c(F)ccc(NS(=O)(=O)N3CCCC3)c2Cl)ccc2ncn(C)c(=O)c12 [Example 51, N-(2-chloro-4-fluoro-3-((3-methyl-4-oxo-5-vinyl-3,4-dihydroquinazolin-6-yl)amino)phenyl)pyrrolidine-1-sulfonamide trifluoroacetate] | 278 | 58 | 77 |  |  | 
Cc1c(Nc2c(F)c(F)cc(NS(=O)(=O)N3CC4CC3C4)c2Cl)ccc2ncn(C)c(=O)c12 [Example 101, N-(2-chloro-3-((3,5-dimethyl-4-oxo-3,4-dihydroquinazolin-6-yl)amino)-4,5-difluorophenyl)-2-azabicyclo[2.1.1]hexane-2-sulfonamide] | 434 | 37 | 3 |  |  | 
COCC1CN(S(=O)(=O)Nc2ccc(F)c(Nc3ccc4ncn(C)c(=O)c4c3Cl)c2Cl)C1 [Example 132, N-(2-chloro-3-((5-chloro-3-methyl-4-oxo-3,4-dihydroquinazolin-6-yl)amino)-4-fluorophenyl)-3-(methoxymethyl)azetidine-1-sulfonamide trifluoroacetate] | 33 | 3 | 13 | 36 | 2.7 | 
Cn1cnc2ccc(Oc3c(F)ccc(NS(=O)(=O)N4CC(F)C4)c3Cl)c(Cl)c2c1=O [Example 120, N-(2-chloro-3-((5-chloro-3-methyl-4-oxo-3,4-dihydroquinazolin-6-yl)oxy)-4-fluorophenyl)-3-fluoroazetidine-1-sulfonamide] | 69 | 4 | 2 | 30 | 3.8 | 
CO[C@@H]1CCN(S(=O)(=O)Nc2cc(Cl)cc(Nc3ccc4ncn(C)c(=O)c4c3C)c2F)C1 [Example 105, (R)-N-(5-chloro-3-((3,5-dimethyl-4-oxo-3,4-dihydroquinazolin-6-yl)amino)-2-fluorophenyl)-3-methoxypyrrolidine-1-sulfonamide] | 268 | 147 | 15 |  |  | 
Cc1c(Nc2c(F)c(F)cc(NS(=O)(=O)N3CC4CC4C3)c2Cl)ccc2ncn(C)c(=O)c12 (stereo not drawn) [Example 102, N-(2-chloro-3-((3,5-dimethyl-4-oxo-3,4-dihydroquinazolin-6-yl)amino)-4,5-difluorophenyl)-3-azabicyclo[3.1.0]hexane-3-sulfonamide] | 702 | 73 | 1 |  |  | 
CCc1c(Nc2c(F)ccc(NS(=O)(=O)N3CCCC3)c2Cl)ccc2ncn(C)c(=O)c12 [Example 52, N-(2-chloro-3-((5-ethyl-3-methyl-4-oxo-3,4-dihydroquinazolin-6-yl)amino)-4-fluorophenyl)pyrrolidine-1-sulfonamide trifluoroacetate] | 857 | 124 | 141 |  |  | 
CO[C@H]1CN(S(=O)(=O)Nc2ccc(F)c(Nc3ccc4ncn(C)c(=O)c4c3C)c2Cl)C[C@@H]1F (relative stereo) [Example 78, (trans)-N-(2-chloro-3-((3,5-dimethyl-4-oxo-3,4-dihydroquinazolin-6-yl)amino)-4-fluorophenyl)-3-fluoro-4-methoxypyrrolidine-1-sulfonamide] |  | 189 | 114 | 34 | 1.5 | 1
Cn1cnc2ccc(Oc3c(F)ccc(NS(=O)(=O)N4CC(F)C4)c3Cl)c(F)c2c1=O [Example 122, N-(2-chloro-4-fluoro-3-((5-fluoro-3-methyl-4-oxo-3,4-dihydroquinazolin-6-yl)oxy)phenyl)-3-fluoroazetidine-1-sulfonamide] |  | 3 | 2 | 31 | 2.3 | 7.8
Cc1c(Nc2c(F)c(F)cc(NS(=O)(=O)N(C)C)c2Cl)ccc2ncn(C)c(=O)c12 [Example 98, N-(2-chloro-3-((3,5-dimethyl-4-oxo-3,4-dihydroquinazolin-6-yl)amino)-4,5-difluorophenyl)-(N,N-dimethyl)-sulfamide] |  | 49 | 20 | 31 | 1.1 | 1.1
CO[C@H]1CN(S(=O)(=O)Nc2cc(F)c(F)c(Nc3ccc4ncn(C)c(=O)c4c3C)c2Cl)C[C@H]1F (relative stereo) [Example 100, cis-N-(2-chloro-3-((3,5-dimethyl-4-oxo-3,4-dihydroquinazolin-6-yl)amino)-4,5-difluorophenyl)-3-fluoro-4-methoxypyrrolidine-1-sulfonamide] | 293 | 47 | 6 |  |  | 
Cc1c(Nc2c(F)ccc(NS(=O)(=O)N3CCC4(CC4)C3)c2Cl)ccc2ncn(C)c(=O)c12 [Example 82, N-(2-chloro-3-((3,5-dimethyl-4-oxo-3,4-dihydroquinazolin-6-yl)amino)-4-fluorophenyl)-5-azaspiro[2.4]heptane-5-sulfonamide trifluoroacetate] |  | 193 | 69 | 13 | 1.2 | 1
Cc1c(Nc2c(F)ccc(NS(=O)(=O)N3CCOCC3)c2Cl)ccc2ncn(C)c(=O)c12 [Example 79, N-(2-chloro-3-((3,5-dimethyl-4-oxo-3,4-dihydroquinazolin-6-yl)amino)-4-fluorophenyl)morpholine-4-sulfonamide] |  | 138 | 111 | 28 | 1.3 | 1
Cc1c(Nc2c(F)ccc(NS(=O)(=O)N3C[C@H](F)[C@@H](F)C3)c2Cl)ccc2ncn(C)c(=O)c12 (relative stereo) [Example 85, (trans)-N-(2-chloro-3-((3,5-dimethyl-4-oxo-3,4-dihydroquinazolin-6-yl)amino)-4-fluorophenyl)-3,4-difluoropyrrolidine-1-sulfonamide] |  | 178 | 52 | 26 | 1.7 | 0.9
COC1CN(S(=O)(=O)Nc2ccc(F)c(Oc3ccc4ncn(C)c(=O)c4c3C)c2Cl)C1 [Example 117, N-(2-chloro-3-((3,5-dimethyl-4-oxo-3,4-dihydroquinazolin-6-yl)oxy)-4-fluorophenyl)-3-methoxyazetidine-1-sulfonamide] |  | 23 | 11 | 30 | 1.5 | 1.5
